The record followed here is patent US20250360069A1, “SUNSCREEN COMPOSITION FOR LACTOBACILLUS AND S. EPIDERMIDIS PROTECTION ON SKIN” (DSM IP Assets B.V., priority 2022, published 2025).

One assay has as its system Staphylococcus epidermidis ATCC 12228. The assay can be described thus: In vitro UV model: bacterial survival upon UV irradiation (96-well, MPN count). It counts as cell-based. The settings on record: sample 20% v/v; UV 15 SED (150 mJ/cm^2 UVA+UVB); after 4 h. The protocol:
(§1) The microbial strains used in this study are listed below and their cultures are reconstituted according to the direction of the supplier collection center of the reference strain, CRBIP (Institut Pasteur Collection, France) or ATCC (American Type Culture Collection, USA): • Lactobacillus crispatus CIP 103604 • Staphylococcus epidermidis ATCC 12228 The 96-well plate was filled with the culture media (140 μL) and a calibrated inoculum (20 μL) of each bacterial strain was added to reach […] colony forming units per milliliter (cfu/mL) final concentration. After contamination, the sample was added (40 μL; 20% v/v) in triplicate and was thoroughly mixed to ensure a homogeneous distribution. Then, the plate was submitted to UV stress through an UV irradiator system (BioSun, Vilber Lourmat, France) according to the UV doses presented Table 1 below. The specific UV dose selected was between 10 and 49% survival of the microbial population. For the microbial population counts, aliquots of the contaminated samples of L. crispatus and S. epidermidis were serially diluted (4 decimal dilutions followed by 8 binary dilutions, in triplicate) in culture media on 96-wells plates with triphenyltetrazolium. Then, the plates were incubated at 37° C.±2,5° C. during 48 h taking into account the respiratory type of each strain. After 48 h at the optimal growing conditions, the last dilution showing a pink color (triphenyltetrazolium) or turbidity indicated the contamination rate and allowed the determination of the decrease rate of microbial population (most probable number MPN method). Controls performed during this experiment were the culture medium with bacteria incubated without UV stress. The microbial population counts were expressed in cfu/mL and were the average of experiment done in triplicate. The use level of the single UV filter and combinations in the test formulations was calculated to obtain a predicted in vitro SPF value of 5.75+/−0.15 and 23.45+/−0.65, respectively (Table 2). The UV filters were mixed in the two oils, Tegosoft XC (55%) and Miglyol 829 Eco (ad100%) and the emulsifier Tween 80 (5%). The effect of selected UV irradiation conditions on the survival of microbial population of L. crispatus and S. epidermidis in the presence of the tested samples 1-10 at 20% v/v, was compared with the corresponding strain in the absence of samples 1-10 and without exposure to UV irradiation (control). The results after the 4-hour incubation were compared to the population of bacteria incubated without UV stress (determination of bacterial population survival) and were expressed in percentage of survival. The relative percentage of protection (%) was calculated from the difference between the survival percentages of samples and vehicle control (with UV irradiation) and divided to the survival percentage of the vehicle control. Consequently, the survival of each microbial population and the relative protection by the UV filter(s) were calculated and are summarized in the Table 2.
With `CCCCC(CC)COC(=O)C(C#N)=C(c1ccccc1)c1ccccc1` (stereo not shown) [Inv. 1, Octocrylene], the “S. epidermidis relative protection by the UV filter(s) vs. vehicle control” value was “(+59) %”.
As for `CCCCC(CC)COC(=O)c1ccc(Nc2nc(Nc3ccc(C(=O)OCC(CC)CCCC)cc3)nc(Nc3ccc(C(=O)OCC(CC)CCCC)cc3)n2)cc1` (stereo not shown) [Inv. 3, Ethylhexyl Triazone], the “S. epidermidis relative protection by the UV filter(s) vs. vehicle control” value is given as “(+59) %”.
The same measure, in the same setting: with `CCCCC(CC)COC(=O)c1ccccc1O` (stereo not shown) [Ref. 1, Ethylhexyl Salicylate] the entry was “(+100) %”; with `CCCCC(CC)COc1ccc(-c2nc(-c3ccc(OC)cc3)nc(-c3ccc(OCC(CC)CCCC)cc3O)n2)c(O)c1` (stereo not shown) [Ref. 2, Bis-Ethylhexyloxyphenol Methoxyphenyl Triazine], “(+100) %”.

Staying with this assay, now noted: sample 20% v/v; UV 15 SED (150 mJ/cm^2 UVA+UVB); after 4 h; compared to untreated and non-irradiated control.
With `CCCCC(CC)COC(=O)C(C#N)=C(c1ccccc1)c1ccccc1` (stereo not shown) [Inv. 1, Octocrylene], the S. epidermidis survival is on record as 63%.
Still for that read-out and setting: the value for `CCCCC(CC)COC(=O)c1ccc(Nc2nc(Nc3ccc(C(=O)OCC(CC)CCCC)cc3)nc(Nc3ccc(C(=O)OCC(CC)CCCC)cc3)n2)cc1` (stereo not shown) [Inv. 3, Ethylhexyl Triazone] was 63%; that for `CCCCC(CC)COC(=O)c1ccccc1O` (stereo not shown) [Ref. 1, Ethylhexyl Salicylate] was 79%.
Same read-out and setting: with `CCCCC(CC)COc1ccc(-c2nc(-c3ccc(OC)cc3)nc(-c3ccc(OCC(CC)CCCC)cc3O)n2)c(O)c1` (stereo not shown) [Ref. 2, Bis-Ethylhexyloxyphenol Methoxyphenyl Triazine] the figure was 79%.

The subject of another assay is Lactobacillus crispatus CIP 103604. The description is as above. It counts as cell-based. The settings on record: sample 20% v/v; UV 50 SED (500 mJ/cm^2 UVA+UVB); after 4 h. The protocol:
as §1
For `CCCCC(CC)COC(=O)C(C#N)=C(c1ccccc1)c1ccccc1` (stereo not shown) [Inv. 1, Octocrylene], the “L. crispatus relative protection by the UV filter(s) vs. vehicle control” value was “(+300) %”.
Still for that read-out and setting: with `CCCCC(CC)COC(=O)c1ccc(Nc2nc(Nc3ccc(C(=O)OCC(CC)CCCC)cc3)nc(Nc3ccc(C(=O)OCC(CC)CCCC)cc3)n2)cc1` (stereo not shown) [Inv. 3, Ethylhexyl Triazone] the entry was “(+100) %”; with `CCCCC(CC)COC(=O)c1ccccc1O` (stereo not shown) [Ref. 1, Ethylhexyl Salicylate], “(+59) %”; with `CCCCC(CC)COc1ccc(-c2nc(-c3ccc(OC)cc3)nc(-c3ccc(OCC(CC)CCCC)cc3O)n2)c(O)c1` (stereo not shown) [Ref. 2, Bis-Ethylhexyloxyphenol Methoxyphenyl Triazine], “(+59) %”.

Still in this assay, the particulars now being: sample 20% v/v; UV 50 SED (500 mJ/cm^2 UVA+UVB); after 4 h; compared to untreated and non-irradiated control.
With `CCCCC(CC)COC(=O)C(C#N)=C(c1ccccc1)c1ccccc1` (stereo not shown) [Inv. 1, Octocrylene], the L. crispatus survival stood at 50%.
Consider `CCCCC(CC)COC(=O)c1ccc(Nc2nc(Nc3ccc(C(=O)OCC(CC)CCCC)cc3)nc(Nc3ccc(C(=O)OCC(CC)CCCC)cc3)n2)cc1` (stereo not shown) [Inv. 3, Ethylhexyl Triazone], for which the L. crispatus survival is recorded as 25%.
On the same count and under the same terms, with `CCCCC(CC)COC(=O)c1ccccc1O` (stereo not shown) [Ref. 1, Ethylhexyl Salicylate] the figure was 20%.
In the case of `CCCCC(CC)COc1ccc(-c2nc(-c3ccc(OC)cc3)nc(-c3ccc(OCC(CC)CCCC)cc3O)n2)c(O)c1` (stereo not shown) [Ref. 2, Bis-Ethylhexyloxyphenol Methoxyphenyl Triazine], the L. crispatus survival worked out at 20%.
